Here are results for eleven compounds from ChEMBL document CHEMBL1201862, “PubChem BioAssay data set” (2004).

Among the test systems are 786-0; CCRF-CEM; COLO 205; HCC 2998; HCT-116; HCT-15; HT-29; Hs-578T; LOX IMVI; MDA-MB-231; MOLT-4; OVCAR-3; OVCAR-5; SF-268; SK-MEL-28; SN12C; TK-10; U-251; UACC-62.
Common to all, as to test: growth of human tumour cells (NCI), 48 h

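Grown in 96-well plates, cells were treated for 48 hours with each compound at five concentrations. Insufficient inhibition: endpoint recorded as highest concentration tested. Abbreviation: GI50, concentration required for 50% inhibition of growth.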 Calls of active or inactive are those of the source. Rule as the data show it: active = GI50 up to about 1.1 µM and inactive = higher. A value given as a limit tells only on which side of the number the result lay.

For the compound `Nc1ccn(C2CCC(COP(=O)(O)OCC(O)COP(=O)(O)OCC3OC(n4cc(F)c(=O)[nH]c4=O)CC3O)O2)c(=O)n1` (centres undefined), the GI50 is > 76.4 µM (inactive) in the test with 786-0; 0.124 µM (active) in the test on CCRF-CEM; 8.3 µM (inactive) in the test on COLO 205; 0.656 µM (active) in the test on HCC 2998; 0.581 µM (active) in the test with HCT-116; 14.4 µM with HCT-15. Besides, the GI50 is 2.79 µM (inactive) in the test with HT-29; 1.96 µM (inactive) with Hs-578T; < 0.0149 µM (active) with LOX IMVI; 44.1 µM (inactive) in the test on MDA-MB-231; 0.102 µM (active) in the test with MOLT-4; 23.2 µM (inactive) with OVCAR-3. Also, the GI50 is 9.93 µM (inactive) in the test with OVCAR-5; 0.0101 µM (active) in the test with SF-268; 26.4 µM (inactive) in the test with SK-MEL-28; 0.135 µM (active) with SN12C; 5.14 µM (inactive) in the test with TK-10; 1.04 µM (active) with U-251. Moreover, the GI50 in the test on UACC-62 is 0.136 µM (active).
Take `CCOC(=O)/C=C(\C(=O)OCC)n1ccc(=O)n(Cc2cn(COCCOC(C)=O)nn2)c1=O`: the GI50 in the test with 786-0 was 15.7 µM (inactive); with CCRF-CEM it was 2.83 µM (inactive); in the test with COLO 205 it was 7.94 µM (inactive); with HCC 2998, 16.6 µM (inactive); with HCT-116, 16.3 µM (inactive); with HCT-15, 18.9 µM. Besides, the GI50 in the test on HT-29 is 16.2 µM (inactive); with Hs-578T, 26.5 µM (inactive); with LOX IMVI, 17.9 µM (inactive); in the test on MDA-MB-231, 20.2 µM (inactive); with MOLT-4, 14.9 µM (inactive); with OVCAR-3, 23.2 µM (inactive). Also, the GI50 in the test on OVCAR-5 is 23.4 µM (inactive); in the test with SF-268 it was 26.1 µM (inactive); in the test with SK-MEL-28, 18 µM (inactive); with SN12C, 20.7 µM (inactive); in the test with TK-10, 15.2 µM (inactive); in the test on U-251, 18.9 µM (inactive). Also, the GI50 with UACC-62 is 18.8 µM (inactive).
For `COC(=O)CN1c2nc(C#N)c(C#N)nc2N(CC(=O)OC)c2nc(C#N)c(C#N)nc21`, the GI50 with 786-0 is 2.09 µM (inactive); in the test with CCRF-CEM, 1.01 µM (active); in the test on COLO 205, 1.26 µM (inactive); with HCC 2998, 16.7 µM (inactive); in the test with HCT-116, 1.58 µM (inactive); in the test with HCT-15 it was 3.05 µM. For the same compound, the GI50 was 3.02 µM (inactive) in the test with HT-29; 19.6 µM (inactive) in the test on Hs-578T; 2.2 µM (inactive) in the test with LOX IMVI; 6.73 µM (inactive) with MDA-MB-231; 0.479 µM (active) with MOLT-4; 2.92 µM (inactive) with OVCAR-3. In addition, the GI50 was 8 µM (inactive) in the test on OVCAR-5; 4.05 µM (inactive) in the test with SF-268; 3.74 µM (inactive) with SK-MEL-28; 3.34 µM (inactive) with SN12C; 2.5 µM (inactive) in the test on TK-10; 6.81 µM (inactive) in the test on U-251. Besides, in the test on UACC-62, the GI50 was 5.45 µM (inactive).
As to `CC(=O)CC(=O)N1CCOC1=O`, the GI50 in the test on 786-0 was > 10 µM (inactive); in the test on CCRF-CEM, > 10 µM (inactive); in the test on COLO 205, > 10 µM (inactive); with HCC 2998, > 10 µM (inactive); in the test on HCT-116, > 10 µM (inactive); with HCT-15, more than 10 µM. Besides, the GI50 in the test with HT-29, in the test with Hs-578T, with LOX IMVI, in the test with MDA-MB-231, in the test on MOLT-4 and with OVCAR-3 was > 10 µM (inactive) throughout. The GI50 with OVCAR-5, in the test on SF-268, in the test with SK-MEL-28, in the test on SN12C, in the test with TK-10 and in the test with U-251 was > 10 µM (inactive) in each case. Moreover, the GI50 in the test with UACC-62 is > 10 µM (inactive).
As for `CC(C)C1C(=O)N2CCCC2C2(O)OC(NC(=O)C3C=C4c5cccc6[nH]cc(c56)CC4N(C)C3)(C(C)C)C(=O)N12` (centres undefined), the GI50 is 17.9 µM (inactive) in the test with 786-0; 24.7 µM (inactive) in the test on CCRF-CEM; 20.7 µM (inactive) with COLO 205; 19.7 µM (inactive) in the test with HCC 2998; 17.9 µM (inactive) in the test with HCT-116; 20.5 µM with HCT-15. The GI50 in the test on HT-29 was 18 µM (inactive); with Hs-578T, 22.5 µM (inactive); with LOX IMVI, 18.1 µM (inactive); in the test with MDA-MB-231, 15.9 µM (inactive); with MOLT-4 it was 17 µM (inactive); in the test with OVCAR-3, 17.9 µM (inactive). Further, the GI50 was 13.2 µM (inactive) in the test with OVCAR-5; 41.1 µM (inactive) in the test with SF-268; 25.5 µM (inactive) in the test with SK-MEL-28; 35.4 µM (inactive) in the test with SN12C; 21.8 µM (inactive) in the test with TK-10; 26.4 µM (inactive) in the test with U-251. Further, the GI50 in the test with UACC-62 is 18.1 µM (inactive).
Regarding `CC(=O)c1nc(C#N)c(N)o1`, the GI50 with 786-0 is > 100 µM (inactive); with CCRF-CEM, > 100 µM (inactive); with COLO 205, > 100 µM (inactive); in the test with HCC 2998, > 100 µM (inactive); in the test on HCT-116, > 100 µM (inactive); in the test with HCT-15, more than 100 µM. For the same compound, the GI50 with HT-29, in the test with Hs-578T, with LOX IMVI, with MDA-MB-231, with MOLT-4 and with OVCAR-3 was > 100 µM (inactive) throughout. In addition, the GI50 in the test with OVCAR-5, with SF-268, in the test with SK-MEL-28, with SN12C, in the test on TK-10 and with U-251 was > 100 µM (inactive) throughout. In addition, in the test on UACC-62, the GI50 was > 100 µM (inactive).
As for `N=C(N)NS(=O)(=O)c1ccc(NC(=O)c2ccc3nc4ccccc4c(O)c3c2)cc1`, the GI50 in the test with 786-0 is > 100 µM (inactive); in the test with CCRF-CEM, > 100 µM (inactive); in the test with COLO 205, > 100 µM (inactive); in the test with HCC 2998 it was > 100 µM (inactive); in the test on HCT-116 it was > 100 µM (inactive); with HCT-15, more than 100 µM. Besides, the GI50 was > 100 µM (inactive) with HT-29; > 100 µM (inactive) in the test with Hs-578T; 49.7 µM (inactive) in the test on LOX IMVI; > 100 µM (inactive) in the test on MDA-MB-231; > 100 µM (inactive) with MOLT-4; > 100 µM (inactive) in the test on OVCAR-3. Also, the GI50 with OVCAR-5, with SF-268, with SK-MEL-28, in the test with SN12C, with TK-10 and with U-251 was > 100 µM (inactive) in each case. In addition, the GI50 with UACC-62 is > 100 µM (inactive).
Consider `COc1ccc(C2=Nn3c(nc4sc5c(c4c3=O)CCCC5)SC2)cc1`, for which the GI50 with 786-0 was > 100 µM (inactive); in the test with CCRF-CEM, > 100 µM (inactive); in the test on COLO 205 it was > 100 µM (inactive); in the test with HCC 2998, > 100 µM (inactive); with HCT-116, > 100 µM (inactive); in the test on HCT-15, more than 100 µM. The GI50 in the test on HT-29 was > 100 µM (inactive); in the test on Hs-578T, 70.6 µM (inactive); with LOX IMVI it was > 100 µM (inactive); in the test with MDA-MB-231, > 100 µM (inactive); in the test on MOLT-4, > 100 µM (inactive); in the test with OVCAR-3, > 100 µM (inactive). For the same compound, the GI50 with OVCAR-5 is > 100 µM (inactive); in the test on SF-268, > 100 µM (inactive); in the test with SK-MEL-28 it was > 100 µM (inactive); in the test with SN12C it was > 100 µM (inactive); in the test on TK-10, 57.8 µM (inactive); with U-251, > 100 µM (inactive). Besides, the GI50 with UACC-62 was > 100 µM (inactive).
As for `C[Si](C)(C)C1=C([Si](C)(C)C)C(Cl)(Cl)C1=O`, the GI50 was 2.58 µM (inactive) in the test with 786-0; 0.232 µM (active) in the test on CCRF-CEM; 2.04 µM (inactive) with COLO 205; 8.36 µM (inactive) in the test on HCC 2998; 3.39 µM (inactive) in the test with HCT-116; 1.92 µM in the test with HCT-15. For the same compound, the GI50 in the test with HT-29 is 3.11 µM (inactive); in the test on Hs-578T it was 10.4 µM (inactive); in the test on LOX IMVI, 1.58 µM (inactive); in the test on MDA-MB-231 it was 2.8 µM (inactive); in the test on MOLT-4, 0.671 µM (active); in the test on OVCAR-3, 2.18 µM (inactive). Moreover, the GI50 in the test with OVCAR-5 is 7.28 µM (inactive); in the test with SF-268 it was 5.94 µM (inactive); in the test with SK-MEL-28 it was 2.79 µM (inactive); with SN12C it was 3.31 µM (inactive); in the test on TK-10, 1.68 µM (inactive); with U-251, 4.08 µM (inactive). The GI50 in the test with UACC-62 was 2.38 µM (inactive).
As for `COC(=O)c1ccccc1/C=C1/Cc2cccc(C)c2C1=O`, the GI50 in the test with 786-0 was 36.2 µM (inactive); in the test with CCRF-CEM it was > 100 µM (inactive); in the test with COLO 205 it was > 100 µM (inactive); in the test on HCC 2998, > 100 µM (inactive); in the test on HCT-116 it was > 100 µM (inactive); in the test on HCT-15, more than 100 µM. The GI50 in the test with HT-29 is > 100 µM (inactive); with Hs-578T it was 39.7 µM (inactive); in the test with LOX IMVI, > 100 µM (inactive); in the test on MDA-MB-231 it was > 100 µM (inactive); with MOLT-4, > 100 µM (inactive); with OVCAR-3, > 100 µM (inactive). For the same compound, the GI50 with OVCAR-5 was > 100 µM (inactive); in the test on SF-268, 73.1 µM (inactive); in the test on SK-MEL-28 it was > 100 µM (inactive); in the test on SN12C it was > 100 µM (inactive); in the test on TK-10 it was > 100 µM (inactive); in the test on U-251, 31 µM (inactive). The GI50 in the test on UACC-62 is 52.2 µM (inactive).
Regarding `CC1(C)O[C@H]2OC3CCC(=O)CC3(O)[C@H]2O1` (some centres undefined), the GI50 in the test with 786-0 was > 100 µM (inactive); in the test on CCRF-CEM, > 100 µM (inactive); with COLO 205 it was > 100 µM (inactive); in the test on HCC 2998, > 100 µM (inactive); in the test with HCT-116, > 100 µM (inactive); with HCT-15, more than 100 µM. For the same compound, the GI50 in the test with HT-29, in the test on Hs-578T, in the test on LOX IMVI, in the test on MDA-MB-231, in the test on MOLT-4 and in the test with OVCAR-3 was > 100 µM (inactive) each time. In addition, the GI50 with OVCAR-5, in the test on SF-268, in the test with SK-MEL-28, in the test on SN12C, in the test on TK-10 and with U-251 was > 100 µM (inactive) throughout. Besides, the GI50 in the test with UACC-62 was > 100 µM (inactive).
